Results from patent publication US9169241B2, “Quinolinyloxyphenylsulfonamides” (Max-Planck-Gesellschaft Zur Forderung der Wissenschaften …, priority 2009, dated 2015).

Key:
Type in all cases: cell-based
786-0 = assay: Cell vitality assay (ATP assay, CellTiter-Glo); settings: Homo sapiens, Table IIb
Procedure, shortened: (§1)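 1000 cells/well incubated 72 h with compound at 12.5 down to 0.195 μM (twofold steps) or DMSO control. Viability measured as cellular ATP by CellTiter-Glo luminescence; IC50 taken as the concentration giving 50% of the DMSO-control ATP level.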

Aspc-1 = assay: Cell vitality assay (ATP assay, CellTiter-Glo); settings: Homo sapiens, ASPC1, Table IIb
Procedure, shortened: as §1

U373 [1] = assay: Cell vitality assay (ATP assay, CellTiter-Glo); settings: Homo sapiens, U373 MG, Table IIc
Procedure, shortened: as §1

HT29 = assay: Cell vitality assay (ATP assay, CellTiter-Glo); settings: Homo sapiens, HT-29, Table IIc
Procedure, shortened: as §1

Panc-1 = assay: Cell vitality assay (ATP assay, CellTiter-Glo); settings: Homo sapiens, Table IIb
Procedure, shortened: as §1

H460 = assay: Cell vitality assay (ATP assay, CellTiter-Glo); settings: Homo sapiens, NCI-H460, Table IIc
Procedure, shortened: as §1

MDA-MB435s = assay: Cell vitality assay (ATP assay, CellTiter-Glo); settings: Homo sapiens, MDA-MB-435S, Table IIc
Procedure, shortened: as §1

DU145 = assay: Cell vitality assay (ATP assay, CellTiter-Glo); settings: Homo sapiens, DU-145, Table IIb
Procedure, shortened: as §1

MiaPaca-2 = assay: Cell vitality assay (ATP assay, CellTiter-Glo); settings: Homo sapiens, MIA PaCa-2, Table IIb
Procedure, shortened: as §1

A549 = assay: Cell vitality assay (ATP assay, CellTiter-Glo); settings: Homo sapiens, Table IIc
Procedure, shortened: as §1

PC3 [2] = assay: Cell vitality assay (ATP assay, CellTiter-Glo); settings: Homo sapiens, PC-3, Table IIb
Procedure, shortened: as §1

SK-MEL28 = assay: Matrigel outgrowth assay/branching assay; settings: IC100, SK-MEL28; Table Vb
Procedure, shortened: (§2)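 Read-out: microscopic images of invasive branching structures at 48 h, 72 h and 96 h. Cells sat on a 3 mg/ml Matrigel layer (set 1 h, 37° C) with compound at 3.125, 1.56 and 0.78 μM or DMSO. A concentration counts as positive only with complete branching inhibition.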

NCI-H1299 = assay: Matrigel outgrowth assay/branching assay; settings: IC100, NCI-H1299; Table Vb
Procedure, shortened: as §2

U373 [3] = assay: Matrigel outgrowth assay/branching assay; settings: IC100, U373; Table Vb
Procedure, shortened: as §2

U138 = assay: Matrigel outgrowth assay/branching assay; settings: IC100, U138; Table Vb
Procedure, shortened: as §2

U87MG = assay: Matrigel outgrowth assay/branching assay; settings: IC100, U87MG; Table Vb
Procedure, shortened: as §2

PC3 [4] = assay: Matrigel outgrowth assay/branching assay; settings: IC100, PC3; Table Vb
Procedure, shortened: as §2

MCF10A = assay: Cell vitality assay (ATP assay, CellTiter-Glo); settings: Homo sapiens, MCF-10A, Table IIb
Procedure, shortened: as §1

Row | SMILES | IC50 (786-0) [µM] | IC50 (Aspc-1) [µM] | IC50 (U373 [1]) [µM] | IC50 (HT29) [µM] | IC50 (Panc-1) [µM] | IC50 (H460) [µM] | IC50 (MDA-MB435s) [µM] | IC50 (DU145) [µM] | IC50 (MiaPaca-2) [µM] | IC50 (A549) [µM] | IC50 (PC3 [2]) [µM] | Total branching inhibition in Matrigel SK-MEL28 (SK-MEL28) | Total branching inhibition in Matrigel NCI-H1299 (NCI-H1299) | Total branching inhibition in Matrigel U373 (U373 [3]) | Total branching inhibition in Matrigel U138 (U138) | Total branching inhibition in Matrigel U87MG (U87MG) | Total branching inhibition in Matrigel PC3 (PC3 [4]) | IC50 (MCF10A) [µM]
1 | COc1cc2c(Oc3ccc(NS(=O)(=O)c4cc(F)ccc4F)cc3F)ccnc2cc1OCCCN1CCN(C)CC1 [Example 12, 2,5-Difluoro-N-(3-fluoro-4-{6-methoxy-7-[3-(4-methyl-piperazin-1-yl)-propoxy]-quinolin-4-yloxy}-phenyl)-benzenesulfonamide] | ≤ 12.5 | ≤ 12.5 | ≤ 12.5 | ≤ 12.5 | 12.5 to 50 | ≤ 12.5 | ≤ 12.5 | ≤ 12.5 | ≤ 12.5 | ≤ 12.5 | ≤ 12.5 | ++ (IC100≦12.5 μM) | ++ (IC100≦12.5 μM) | ++ (IC100≦12.5 μM) | ++ (IC100≦12.5 μM) | + (IC100>12.5 μM) | ++ (IC100≦12.5 μM) | 
2 | COc1cc2c(Oc3ccc(NS(=O)(=O)c4cccc(Oc5ccccc5)c4)cc3F)ccnc2cc1OCCCN1CCN(C)CC1 [Example 14, N-(3-Fluoro-4-{6-methoxy-7-[3-(4-methyl-piperazin-1-yl)-propoxy]-quinolin-4-yloxy}-phenyl)-3-phenoxy-benzenesulfonamide] |  |  |  |  |  |  |  |  |  |  |  |  |  |  | ++ (IC100≦12.5 μM) |  |  | 
3 | COC(=O)c1sccc1S(=O)(=O)Nc1ccc(Oc2ccnc3cc(OCCCN4CCCC(C)C4)c(OC)cc23)c(F)c1 (stereo not shown) [Example 66, 3-(3-Fluoro-4-{6-methoxy-7-[3-(3-methyl-piperidin-1-yl)-propoxy]-quinolin-4-yloxy}-phenylsulfamoyl)-thiophene-2-carboxylic acid methyl ester] | ≤ 12.5 | ≤ 12.5 | ≤ 12.5 | ≤ 12.5 | ≤ 12.5 | ≤ 12.5 | ≤ 12.5 | ≤ 12.5 | ≤ 12.5 | ≤ 12.5 | ≤ 12.5 | ++ (IC100≦12.5 μM) | ++ (IC100≦12.5 μM) | ++ (IC100≦12.5 μM) | ++ (IC100≦12.5 μM) | ++ (IC100≦12.5 μM) | ++ (IC100≦12.5 μM) | 
4 | COc1cc2c(Oc3ccc(NS(=O)(=O)c4cc(F)ccc4F)cc3F)ccnc2cc1OCCCN1CCCCC1 [Example 1, 2,5-Difluoro-N-{3-fluoro-4-[6-methoxy-7-(3-piperidin-1-yl-propoxy)-quinolin-4-yloxy]-phenyl}-benzenesulfonamide] | 12.5 to 50 | ≤ 12.5 | ≤ 12.5 | ≤ 12.5 | 12.5 to 50 | ≤ 12.5 | ≤ 12.5 | ≤ 12.5 | ≤ 12.5 | ≤ 12.5 | ≤ 12.5 | ++ (IC100≦12.5 μM) | ++ (IC100≦12.5 μM) | ++ (IC100≦12.5 μM) | ++ (IC100≦12.5 μM) | + (IC100>12.5 μM) | ++ (IC100≦12.5 μM) | 
5 | COc1cc2c(Oc3ccc(NS(=O)(=O)c4ccccc4C(F)(F)F)cc3F)ccnc2cc1OCCCN1CCN(C)CC1 [Example 24, N-(3-Fluoro-4-{6-methoxy-7-[3-(4-methyl-piperazin-1-yl)-propoxy]-quinolin-4-yloxy}-phenyl)-2-trifluoromethyl-benzenesulfonamide] | ≤ 12.5 | ≤ 12.5 | ≤ 12.5 | ≤ 12.5 | 12.5 to 50 | ≤ 12.5 | ≤ 12.5 | ≤ 12.5 | ≤ 12.5 | ≤ 12.5 | 12.5 to 50 | ++ (IC100≦12.5 μM) | ++ (IC100≦12.5 μM) | ++ (IC100≦12.5 μM) | ++ (IC100≦12.5 μM) | + (IC100>12.5 μM) | ++ (IC100≦12.5 μM) | ≤ 12.5
